Results taken from patent US10617656B2, “Methods of increasing the cytotoxicity of chemotherapeutic agents with multisubstrate inhibitors of histone, protein-Lys, polyamine acetylation, and polyamine metabolism” (Vanderbilt University, priority 2010, dated 2020).

Columns and labels:
[1] = system: thymidine dimers in DNA of H358 cells; test: Nucleotide excision repair assay (thymidine dimer slot blot) after UVC; type: cell-based; settings: 50 μM 1a, 24 hours after 40 J/m^2 UVC (untreated: 50%)
Experimental: Also shown are controls for no treatment (“c” minus 1a) or treatment with 1a only (“c” plus 1a). Each lane represents 60 μg protein. […] Each lane represents 60 μg protein.
For NER, a slot blot immunoassay was used to detect the loss of thymidine dimers from the DNA of UVC treated cells as previously described. An antibody specific for cyclobutane pyrimidine dimers, the major photoproduct produced by UVC treatment, was purchased from Kamiya Biomedical Co (Seattle, Wash.; anti-thymidine dimer, clone KTM53) and used at 1:40 dilution.

[2] = system: histone H3 lysine 9 acetylation in H358 cells; test: Western analysis of histone H3 acetylation/methylation in H358 cells; type: cell-based; settings: 50 μM, 12 hours
Experimental: (A) Structures of 1a, and the acetylated side chain of a lysine residue within the polypeptide chain of a protein targeted by the acetylating enzyme (R1 and R2 are the main chain elements on both sides of the lysyl residue). (B) [^3H]-thymidine incorporation into DNA of H358 cells pulsed for 6 hrs at three different time points after the addition of increasing concentrations of 1a, i.e., at 6-12 hrs (12 hr curve), at 18-24 hours (24 hr curve), or at 42-48 hrs (48 hr curve). Incorporation is represented as a percentage relative to control (untreated) cells. (C) Cell cycle analysis of propidium iodide-stained cells harvested at various times after addition of 50 μM 1a. % of cells in G1, S, and G2 represents the average of two independent profiles. (D) Western analysis of histone H3 lysine 9 acetylation, histone H3 lysine 56 acetylation, histone H3 lysine 9 methylation, and total histone H3, before “c” or at the indicated times after addition of 50 μM 1a. Each lane represents 60 μg cellular protein.
Each lane represents 175 μg cell lysate protein.
One 6 cm culture dish of H358 cells per treatment was used. Cells were treated with 50 μM spm-2, spm-3, or spd-3a for 12 hours. Histones were extracted from cells in 0.2M H2SO4 (as described in Furuta, T., et al (2003) J. Biol. Chem. 278: 20303-20312), followed by SDS-PAGE and Western blotting. Blots were probed with anti-acetyl histone H3-lysine 9 (Upstate Biotechnology, Inc.)
Cells were lysed by adding 1 mL of 0.2 M H2SO4. […]
One 10-cm plate of H358 lung cancer cells (about 2×10^6 cells), grown in DMEM+10% Fetal bovine serum as described in reference, were treated for 24 hours with 50 μM 1a inhibitor. […] Treated cells and untreated (control) cells were harvested by lysing in buffer containing 10 mM Hepes pH 7.5, 100 mM NaCl, 300 mM sucrose, 3 mM MgCl2, 1 mM EDTA, 1 mM DTT, 0.5% Triton X-100, 1 mM PMSF, protease inhibitor pellet (Roche) and analyzed on 10% SDS-PAGE gels, followed by Western immunoblot analysis of total histone H3, methylated histone H3 (methylated on lysine 9), and acetylated histone H3 (acetylated on lysine 9). […]

CC(C)(COP(=O)(O)OP(=O)(O)OC[C@H]1O[C@@H](n2cnc3c(N)ncnc32)[C@H](O)[C@@H]1OP(=O)(O)O)[C@@H](O)C(=O)NCCC(=O)NCCSCC(=O)NCCCNCCCCN [1a, spermidine[N1]-CoA]
decrease of thymidine dimers [1]: 40%

CC(=O)NCCSCC(=O)NCCCNCCCCNCCCN [spm-3]
histone H3K9 acetylation (Western) [2]: suppress histone acetylation
